Data published in US8569469B2, “B12-dependent dehydratases with improved reaction kinetics” (priority 2002, dated 2013).

Columns and labels:
Format in all cases: biochemical
[1] = target: Klebsiella pneumoniae ATCC 25955 B12-dependent glycerol dehydratase (GDH), wild type, SEQ ID NO: 1 (α, β, γ subunits SEQ ID NO: 2, 3, 4) (Klebsiella pneumoniae, UniProt O08505+Q59476); test: Time course of GDH reaction with glycerol, with and without 1,3-propanediol (permeabilized cells, FIG. 1); design: permeabilized cells (A1) or purified (A2-A4)
Method: FIG. 1 illustrates the typical time course associated with GDH inactivation. These enzyme activity assays were conducted using the GDH encoded by dhaB1, dhaB2, and dhaB3 (SEQ ID NO:1 and SEQ ID NO: 2, 3, and 4, respectively) of K. pneumoniae (WO 01/012833A2).
Cells were permeabilized as follows: aliquots of culture (0.3 mL) were dispensed into the square wells of a polypropylene deep-well plate (Beckman-Coulter, Fullerton, Calif.) and 10 μL of toluene containing 2.5% (v/v) Triton X-100 detergent was added to each well. Plates were then shaken for 10 min at top speed on an IKA MTS4 shaker (IKA-Werke Gmbh., Staufen, Germany). Working under red light to protect the coenzyme B12, reactions were started by adding 5 volumes of substrate solution to 1 volume of permeabilized cell suspension. The substrate solution contained 12 mM glycerol and 24 μM coenzyme B12 in 0.1 M K-Hepes, pH 8. At timed intervals, 12.5 μl aliquots of the reaction were added to the wells of a 96-well plate which contained 12.5 μl of 3 mg/mL MBTH in 0.4 M glycine-HCl, pH 2.7. At least 20 min after sampling, 125 μL of 5.5 mM FeCl3 in 10 mM HCl was added to each of the MBTH-containing samples. After a further 20 min or longer, the blue color associated with GDH activity was quantitated as absorbance at 670 nm using a Spectramax 160 plate reader (Molecular Devices, Sunnyvale, Calif.). A similar experiment was conducted in which the substrate solution was supplemented with 50 mM 1,3-propanediol.
The rate of product formation decreases rapidly with time as inactivation occurs. A theoretical curve was drawn through the points by fitting three parameters to the following equation y=T0+amp(1−exp(−kinact obsd*time)). […] The fitting parameters are related to the kinetic properties of the reaction as follows: the amplitude is equal to the initial rate of the reaction (v) divided by the observed enzyme inactivation rate (kinact obsd). The initial rate is [GDH][gly]kcat/(Km+[gly]). […]

[2] = target: Klebsiella pneumoniae GDH variant Xba3007 (γ-Thr53Ala), SEQ ID NO: 40 (amino acid 41, 42, 43) (Klebsiella pneumoniae, UniProt O08505+Q59476); details: Xba3007 (Type 1)
[3] = target: Klebsiella pneumoniae GDH variant Xba3009 (α-Thr77Ala, α-Cys193Ser, stop of α to Glu (α-β fusion), β-Lys56Arg, β-Ala88 silent, β-Asp111Glu, γ-His67Tyr, γ-Thr114 (Klebsiella pneumoniae, UniProt O08505+Q59476, C193S/D111E, form not given/K56R/T77A)); details: Xba3009 (Type 4)
[4] = target: Klebsiella pneumoniae GDH variant Sma3002 (α-Tyr271Cys, α-Tyr502His, stop of α to Gln (α-β fusion), β-Gln2Arg, β-Phe11 silent), SEQ ID NO: 140 (amino acid 141, (Klebsiella pneumoniae, UniProt O08505+Q59476, form not given/Y271C/Y502H)); details: Sma3002 (Type 2)

OCCCO [1,3-propanediol]
Ki [1]: ~15 mM | inactivation, times faster with 1,3-propanediol ([1]; 50 mM 1,3-propanediol, 10 mM glycerol, vs without 1,3-propanediol): ~3 times | inhibition at 50000 µM ([1]; pH 8, read-out: reduction of initial rate of the reaction): ~20%

OCC(O)CO [glycerol]
kcat [2]: 16,220 min^−1 | kcat [3]: 65,373 min^−1 | Km [4]: 2940 µM | kcat [4]: 9,830 min^−1
